Measurements: US7118895B2, “Process for producing aglycon by using diglycosidase and flavor-improved food containing the aglycon and converting agent to be used in the process” (Amano Enzyme Inc., priority 2000, dated 2006)

Tested on: Crude diglycosidase
Experiment: Examination of substrate concentration in the conversion into isoflavone aglycons by diglycosidase using soybean materials;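 note: percent of the isoflavone family total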
Format: biochemical, Penicillium multicolor IAM7153
Details: concentrated soybean protein
Method: Into 20 mM acetate buffer of pH 4.0 was suspended 0.1 g, 0.25 g, 0.5 g, 1.0 g, or 1.5 g of each of various soybean materials (roasted soy flour (manufactured by Fuji Shokuryo K.K.), soymilk (manufactured by Gitoh Shokuhin K.K.), defatted soybean (manufactured by Fuji Seiyu K.K.), concentrated soybean protein (manufactured by Fuji Seiyu K.K.)). The pH of the suspension was measured and the liquid volume was adjusted to 4.5 mL while the pH was adjusted to 4.0 with 1N hydrochloric acid. An enzyme solution wherein diglycosidase activity of crude diglycosidase was adjusted to 1.88 AU/mL was added thereto in an amount of 0.5 mL, whereby the final liquid volume was 5.0 mL. Namely, the ratio of the soybean material in the reaction mixture was 2%, 5%, 10%, 20%, or 30% (w/v). The whole was reacted at 55° C. under shaking. To 5 mL of the reaction mixture was added 7 mL of ethanol after 0, 1, 3, and 6 hours of the reaction. After ultrasonication, the mixture was thoroughly mixed. It was subjected to centrifugal separation at 2,000 rpm and room temperature for 5 minutes. Then, […] of the supernatant was placed in a 1.5 mL microtube and was subjected to centrifugal separation at 15,000 rpm and 4° C. for 10 minutes. The supernatant was filtered through a filter and each sample was suitably diluted by a factor of 1 to 6 depending on the substrate concentration. Fifty μL of the diluted solution was analyzed by HLPC (Tables 27 to 38).

[1] = substrate concentration 2%, heat treatment of enzyme no, reaction time 0 h
[2] = substrate concentration 2%, heat treatment of enzyme no, reaction time 1 h
[3] = substrate concentration 2%, heat treatment of enzyme no, reaction time 3 h
[4] = substrate concentration 2%, heat treatment of enzyme no, reaction time 6 h
[5] = substrate concentration 2%, heat treatment of enzyme yes, reaction time 6 h
[6] = substrate concentration 5%, heat treatment of enzyme no, reaction time 0 h
[7] = substrate concentration 5%, heat treatment of enzyme no, reaction time 1 h
[8] = substrate concentration 5%, heat treatment of enzyme no, reaction time 3 h
[9] = substrate concentration 5%, heat treatment of enzyme no, reaction time 6 h
[10] = substrate concentration 5%, heat treatment of enzyme yes, reaction time 6 h
[11] = substrate concentration 10%, heat treatment of enzyme no, reaction time 0 h
[12] = substrate concentration 10%, heat treatment of enzyme no, reaction time 1 h
[13] = substrate concentration 10%, heat treatment of enzyme no, reaction time 3 h
[14] = substrate concentration 10%, heat treatment of enzyme no, reaction time 6 h
[15] = substrate concentration 10%, heat treatment of enzyme yes, reaction time 6 h
[16] = substrate concentration 20%, heat treatment of enzyme no, reaction time 0 h
[17] = substrate concentration 20%, heat treatment of enzyme no, reaction time 1 h
[18] = substrate concentration 20%, heat treatment of enzyme no, reaction time 3 h
[19] = substrate concentration 20%, heat treatment of enzyme no, reaction time 6 h
[20] = substrate concentration 20%, heat treatment of enzyme yes, reaction time 6 h
[21] = substrate concentration 30%, heat treatment of enzyme no, reaction time 0 h
[22] = substrate concentration 30%, heat treatment of enzyme no, reaction time 1 h
[23] = substrate concentration 30%, heat treatment of enzyme no, reaction time 3 h
[24] = substrate concentration 30%, heat treatment of enzyme no, reaction time 6 h
[25] = substrate concentration 30%, heat treatment of enzyme yes, reaction time 6 h

Compound | Decomposition efficiency: ratio of each glycoside/aglycon within its isoflavone family [1] | Decomposition efficiency: ratio of each glycoside/aglycon within its isoflavone family [2] | Decomposition efficiency: ratio of each glycoside/aglycon within its isoflavone family [3] | Decomposition efficiency: ratio of each glycoside/aglycon within its isoflavone family [4] | Decomposition efficiency: ratio of each glycoside/aglycon within its isoflavone family [5] | Decomposition efficiency: ratio of each glycoside/aglycon within its isoflavone family [6] | Decomposition efficiency: ratio of each glycoside/aglycon within its isoflavone family [7] | Decomposition efficiency: ratio of each glycoside/aglycon within its isoflavone family [8] | Decomposition efficiency: ratio of each glycoside/aglycon within its isoflavone family [9] | Decomposition efficiency: ratio of each glycoside/aglycon within its isoflavone family [10] | Decomposition efficiency: ratio of each glycoside/aglycon within its isoflavone family [11] | Decomposition efficiency: ratio of each glycoside/aglycon within its isoflavone family [12] | Decomposition efficiency: ratio of each glycoside/aglycon within its isoflavone family [13] | Decomposition efficiency: ratio of each glycoside/aglycon within its isoflavone family [14] | Decomposition efficiency: ratio of each glycoside/aglycon within its isoflavone family [15] | Decomposition efficiency: ratio of each glycoside/aglycon within its isoflavone family [16] | Decomposition efficiency: ratio of each glycoside/aglycon within its isoflavone family [17] | Decomposition efficiency: ratio of each glycoside/aglycon within its isoflavone family [18] | Decomposition efficiency: ratio of each glycoside/aglycon within its isoflavone family [19] | Decomposition efficiency: ratio of each glycoside/aglycon within its isoflavone family [20] | further results
O=c1c(-c2ccc(O)cc2)coc2cc(O[C@@H]3O[C@H](CO)[C@@H](O)[C@H](O)[C@H]3O)ccc12 [diadzin] | 52.8% | not detected | not detected | not detected | 52.6% | 53.0% | not detected | not detected | not detected | 53.5% | 52.8% | 2.2% | not detected | not detected | 53.3% | 52.9% | 0.7% | not detected | not detected | 52.8% | Decomposition efficiency: ratio of each glycoside/aglycon within its isoflavone family [21]: 49.2%; Decomposition efficiency: ratio of each glycoside/aglycon within its isoflavone family [22]: 2.7%; Decomposition efficiency: ratio of each glycoside/aglycon within its isoflavone family [23]: not detected; Decomposition efficiency: ratio of each glycoside/aglycon within its isoflavone family [24]: not detected; Decomposition efficiency: ratio of each glycoside/aglycon within its isoflavone family [25]: 49.8%
O=C(O)CC(=O)OC[C@H]1O[C@@H](Oc2ccc3c(=O)c(-c4ccc(O)cc4)coc3c2)[C@H](O)[C@@H](O)[C@@H]1O [malonydaidzin] | not detected | not detected | not detected | not detected | not detected | not detected | not detected | not detected | not detected | not detected | not detected | not detected | not detected | not detected | not detected | not detected | not detected | not detected | not detected | not detected | Decomposition efficiency: ratio of each glycoside/aglycon within its isoflavone family [21]: not detected; Decomposition efficiency: ratio of each glycoside/aglycon within its isoflavone family [22]: not detected; Decomposition efficiency: ratio of each glycoside/aglycon within its isoflavone family [23]: not detected; Decomposition efficiency: ratio of each glycoside/aglycon within its isoflavone family [24]: not detected; Decomposition efficiency: ratio of each glycoside/aglycon within its isoflavone family [25]: not detected
